The target in data set [1] is T1, Branched-chain-amino-acid aminotransferase, cytosolic (Homo sapiens, UniProt P54687).
T1 sequence (P54687 whole entry): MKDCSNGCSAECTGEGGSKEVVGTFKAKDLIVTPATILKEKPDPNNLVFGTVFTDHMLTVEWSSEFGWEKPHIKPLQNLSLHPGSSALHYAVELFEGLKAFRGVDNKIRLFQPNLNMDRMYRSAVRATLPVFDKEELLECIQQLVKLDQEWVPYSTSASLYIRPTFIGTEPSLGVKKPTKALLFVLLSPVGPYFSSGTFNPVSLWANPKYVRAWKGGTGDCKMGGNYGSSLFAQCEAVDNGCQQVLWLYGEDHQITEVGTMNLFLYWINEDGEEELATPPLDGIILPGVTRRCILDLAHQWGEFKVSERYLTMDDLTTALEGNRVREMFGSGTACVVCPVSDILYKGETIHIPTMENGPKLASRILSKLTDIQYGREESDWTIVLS
The data set can be described thus: Inhibition of BCATc (unknown origin).

Data set [2] can be described thus: Clearance in mouse blood at 1 mg/kg, iv. It is filed as ADME, organism-based.
The nature of data set [3]: Half life of compound in mouse at 1 mg/kg, iv. Conditions: in vivo. It is filed as ADME, organism-based.
The nature of data set [4]: Volume of distribution at steady state in mouse at 1 mg/kg, iv. It is filed as ADME, organism-based. To be noted: in vivo, read-out: Vdss.
A short description of data set [5]: AUC (0 to infinity) in mouse at 5 mg/kg, po. It is filed as ADME, organism-based. Conditions: in vivo. On the set-up: dose 5 mg/kg, route oral, time infinity.
Data set [6] can be described thus: Cmax in mouse at 5 mg/kg, po. It is filed as ADME, organism-based. On the set-up: dose 5 mg/kg, route oral. To be noted: in vivo.
Data set [7] in a line: Oral bioavailability in mouse at 5 mg/kg. It is filed as ADME, organism-based. Conditions: in vivo.
Data set [8] can be described thus: Plasma protein binding in mouse. Conditions: read-out: PPB (converted). It is filed as ADME, cell-free.
Data set [9] deals with Mus musculus. Kind of data set: Increase in luecine level in C57Black/6J mouse serum at 300 mg/kg, po administered 5 hrs post fasting state followed by refeeding of amino acid mixture at 30 mins post dose measured after 1 hr by HPLC method. It is filed as functional, organism-based.
Data set [10] concerns Mus musculus. The data set can be described thus: Increase in isoluecine level in C57Black/6J mouse serum at 300 mg/kg, po administered 5 hrs post fasting state followed by refeeding of amino acid mixture at 30 mins post dose measured after 1 hr by HPLC method. It is filed as functional, organism-based.
The subject of data set [11] is Mus musculus. The data set can be described thus: Increase in valine level in C57Black/6J mouse serum at 300 mg/kg, po administered 5 hrs post fasting state followed by refeeding of amino acid mixture at 30 mins post dose measured after 1 hr by HPLC method. It is filed as functional, organism-based.
Data set [12] relates to Mus musculus. The data set can be described thus: Increase in luecine level in po dosed C57Black/6J mouse serum administered 5 hrs post fasting state followed by refeeding of amino acid mixture at 6 hrs post dose measured after 1 hr by HPLC method relative to vehicle control. It is filed as functional, organism-based.
Data set [13] relates to Mus musculus. Kind of data set: Increase in isoluecine level in po dosed C57Black/6J mouse serum administered 5 hrs post fasting state followed by refeeding of amino acid mixture at 6 hrs post dose measured after 1 hr by HPLC method relative to vehicle control. It is filed as functional, organism-based.
In data set [14] the test system is Mus musculus. The data set can be described thus: Increase in valine level in po dosed C57Black/6J mouse serum administered 5 hrs post fasting state followed by refeeding of amino acid mixture at 6 hrs post dose measured after 1 hr by HPLC method relative to vehicle control. It is filed as functional, organism-based.

SMILES strings stand for the structures. Active and inactive are the calls of the source. The rule behind the calls is not given here.

For the molecule `CNC(=O)c1ccc2c(c1)nc(-c1ccccn1)n2[C@@H]1CCC[C@H](NC(=O)c2ccc(Br)s2)C1` (relative stereo), it took 3.98 µM to reach half-maximal inhibition in data set [1] (IC50). The clearance in [2] came out at 0.24 L/h/kg. Besides, the half-life in data set [3] is 3.7 h. In data set [4], the Vd is 0.9 L/kg. Further, in data set [5], the AUC(0-inf) was determined as 5.81 µg·h/mL. This molecule showed a Cmax in data set [6] of 1.65 µg/mL. Besides, the bioavailability in [7] is 28%. The fraction unbound in data set [8] was 0.029. Further, the result with Mus musculus [9], in the data set with Mus musculus [10] and in the data set on Mus musculus [11] was Active. Besides, the Activity entry with Mus musculus [12], in the data set on Mus musculus [13] and in the data set on Mus musculus [14] was “Dose-dependent effect” throughout.
Molecule `CNC(=O)c1ccc2c(c1)nc(-c1ccccc1SC)n2[C@@H]1CCC[C@H](NC(=O)c2ccc(Br)s2)C1` (relative stereo) gave an IC50 in data set [1] of 1.26 µM. Also, the clearance in data set [2] was determined as 1.38 L/h/kg. The molecule further gave a half-life in [3] of 1.4 h. Further, the Vd in [4] was 1.3 L/kg. The AUC(0-inf) in data set [5] amounted to 0.338 µg·h/mL. In [6], this molecule registered a Cmax of 0.129 µg/mL. Further, the bioavailability in data set [7] amounted to 10%. The fraction unbound in data set [8] is 0.005.

By IC50 is commonly meant the midpoint of a concentration-inhibition curve. A higher IC50 goes with weaker potency. In general, clearance refers to the volume of plasma or blood freed of the substance per unit of time. Low readings indicate a low capacity for elimination, high ones a high capacity for elimination. What is called half-life is how long it takes for the measured level to halve. One may read the AUC(0-inf) as the area under the concentration-time curve extrapolated to infinity. For orientation: Cmax means the peak of the concentration-time curve. Usually bioavailability stands for dose-corrected exposure relative to a reference, in per cent. Lower therefore signals little systemic uptake.

Values taken from ChEMBL document CHEMBL3808314, “Discovery and Optimization of Potent, Selective, and in Vivo Efficacious 2-Aryl Benzimidazole BCATm Inhibitors” (ACS Med Chem Lett, 2016).
